Publication PMC11641755, “Features of Highly Homologous T-Cell Receptor Repertoire in the Immune Response to Mutations in Immunogenic Epitopes” (International Journal of Molecular Sciences, 2024)

Columns and labels:
[1] = system: TCR NYN-3 (Jurkat E6-1 TPR cells); assay type: cell-based, human
[2] = system: NYN peptide-specific TCRs (NYN-1 to NYN-4 Jurkat E6-1 TPR cell lines); assay type: cell-based, human
[3] = system: TCR NYN-2 (Jurkat E6-1 TPR cells); assay type: cell-based, human
[4] = system: TCR NYN-1 (Jurkat E6-1 TPR cells); assay type: cell-based, human
[5] = system: TCR^NYN-I; settings: ref 20 (Deng et al.); cited from earlier work
[6] = system: TCR^NYN-II; settings: ref 20 (Deng et al.); cited from earlier work
[7] = system: TCR NYN-4 (Jurkat E6-1 TPR cells); assay: Jurkat E6-1 TPR NFAT-eGFP reporter activation, transgenic TCR NYN-4, peptide-loaded K562-A*24:02; assay type: cell-based, human

NYDYLYRLF [N450D]
effect of the mutation on response / affinity of NYN-3 (in words) [1]: increased the affinity
effect of the mutation on the T-cell response / recognition (in words) [2]: did not affect the T-cell response
effect of the mutation on response / affinity of NYN-2 (in words) [3]: increased the affinity

NYKYLYRLF [N450K]
effect of the mutation on response / affinity of NYN-1 (in words) [4]: remained preserved
recognition / response of TCR^NYN-I (in words) [5]: remained preserved
recognition / response of TCR^NYN-II (in words) [6]: remained preserved
reduction in the recognition compared to wild-type NYN ([7]; TCR NYN-4, from EC50 values): up to 400 fold

NYNYLYRFF [L455F]
effect of the mutation on the T-cell response / recognition (in words) [2]: did not affect the T-cell response
reduction in the recognition compared to wild-type NYN ([3]; TCR NYN-2, from EC50 values): 23 fold

NYNYLYRLL [F456L]
effect of the mutation on the T-cell response / recognition (in words) [2]: did not affect the T-cell response

NYNYMYRLF [L452M]
effect of the mutation on the T-cell response / recognition (in words) [2]: did not affect the T-cell response

VYFLQSINF
GFP expression compared to NYN ([4]; NYN-1 cell line, K562 loaded with 0.8 μM peptide): the same level of GFP expression as NYN
GFP expression compared to NYN ([1]; NYN-3 cell line, K562 loaded with 0.8 μM peptide): 1.5 times lower
recognition by all NYN-specific TCRs (cross-reactivity) ([2]; K562 loaded with 0.8 μM of each epitope): recognized
GFP expression compared to NYN ([3]; NYN-2 cell line, K562 loaded with 0.8 μM peptide): the same level of GFP expression as NYN
GFP expression compared to NYN ([7]; NYN-4 cell line, K562 loaded with 0.8 μM peptide): 1.5 times lower
